Experimental data published in PubChem BioAssay AID248 (DTP/NCI, 2004).
Values joined by “and” are separate entries in the source; they are usually repeats but may differ in a detail not shown here. Equal entries are not always repeated. Inconclusive results and toxic doses are left out. Cut-off read from the data, not from the text of the source: active = T/C of 150% or more; inactive = T/C below 125%.

System: L1210 leukemia ip in BDF1 mice, survival T/C
Test: NCI In Vivo Anticancer Drug Screen. Data for tumor model L1210 Leukemia (intraperitoneal) in B6D2F1 (BDF1) mice
Details: endpoint: mean survival time, higher = longer survival
Procedure, shortened: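 Mice bearing the transplanted tumor received compound or vehicle. Survival of the treated group was divided by that of the vehicle-treated control group to give the ratio.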

[1] = dose: 100.0 mg/kg/injection, schedule: Q01DX009 (ip), vehicle: saline with Tween-80
[2] = dose: 100.0 mg/kg/injection, schedule: Q04DX003 (ip), vehicle: saline with Tween-80
[3] = dose: 200.0 mg/kg/injection, schedule: Q04DX003 (ip), vehicle: saline with Tween-80
[4] = dose: 400.0 mg/kg/injection, schedule: Q04DX003 (ip), vehicle: saline with Tween-80
[5] = dose: 100.0 mg/kg/injection, schedule: Q01DX001 (ip), vehicle: saline
[6] = dose: 100.0 mg/kg/injection, schedule: Q01DX009 (ip), vehicle: Klucel (hydroxypropylcellulose) (HPC)
[7] = dose: 100.0 mg/kg/injection, schedule: Q04DX003 (ip), vehicle: Klucel (hydroxypropylcellulose) (HPC)
[8] = dose: 200.0 mg/kg/injection, schedule: Q01DX009 (ip), vehicle: Klucel (hydroxypropylcellulose) (HPC)
[9] = dose: 200.0 mg/kg/injection, schedule: Q04DX003 (ip), vehicle: Klucel (hydroxypropylcellulose) (HPC)
[10] = dose: 400.0 mg/kg/injection, schedule: Q01DX009 (ip), vehicle: Klucel (hydroxypropylcellulose) (HPC)
[11] = dose: 400.0 mg/kg/injection, schedule: Q04DX003 (ip), vehicle: Klucel (hydroxypropylcellulose) (HPC)
[12] = dose: 50.0 mg/kg/injection, schedule: Q01DX001 (ip), vehicle: carboxymethylcellulose (CMC)
[13] = dose: 100.0 mg/kg/injection, schedule: Q01DX001 (ip), vehicle: carboxymethylcellulose (CMC)
[14] = dose: 200.0 mg/kg/injection, schedule: Q01DX001 (ip), vehicle: carboxymethylcellulose (CMC)
[15] = dose: 400.0 mg/kg/injection, schedule: Q01DX001 (ip), vehicle: carboxymethylcellulose (CMC)

Measured: T/C

Br/C=C(\Br)C[N+]12CN3CN(CN(C3)C1)C2
inactive: [1] 96 % of control | [2] 100 % of control | [3] 114 % of control | [4] 101 % of control

O=C1C(Cl)=C(NCCCCCCNC2=C(Cl)C(=O)c3ccccc3C2=O)C(=O)c2ccccc21
inactive: [5] 106 % of control

CCOC(=O)NNC(=O)c1ccccc1N(C)C
inactive: [6] 94 % of control | [7] 101 % of control | [8] 91 % of control | [9] 101 % of control | [10] 97 % of control | [11] 95 % of control

C/C(=N/N(C)C)c1ccc(Cl)cc1
inactive: dose: 12.5 mg/kg/injection, schedule: Q01DX009 (ip), vehicle: saline 105 % of control | dose: 25.0 mg/kg/injection, schedule: Q01DX009 (ip), vehicle: saline 112 % of control | dose: 50.0 mg/kg/injection, schedule: Q01DX009 (ip), vehicle: saline 111 % of control | dose: 100.0 mg/kg/injection, schedule: Q04DX003 (ip), vehicle: saline 101 % of control

Cc1ccc(C)c(NC(=O)N(CCO)C2CCCCC2)c1
inactive: [6] 98 % of control | [7] 104 % of control | [8] 95 % of control | [9] 103 % of control | [10] 90 % of control | [11] 95 % of control

CC(C)CCCC(C)C1CCC2C3CC(=O)OC4CC(Br)CCC4(C)C3CCC12C (stereo not given)
inactive: [2] 101 % of control | [3] 101 % of control | [4] 102 % of control

NCCCC(N)C(=O)NCCCCCCCCCCNC(=O)C(N)CCCN (stereo not given)
inactive: dose: 10.0 mg/kg/injection, schedule: Q01DX Z (ip), vehicle: saline 93 % of control | dose: 30.0 mg/kg/injection, schedule: Q01DX Z (ip), vehicle: saline 101 % of control

CCCCCCCCCC(O)CC (stereo not given)
inactive: [6] 106 % of control | [7] 103 % of control | [8] 102 % of control | [9] 103 % of control | [10] 105 % of control | [11] 103 % of control

CC(=O)Nc1ccc(SC(=O)N(C)C)cc1
inactive: dose: 12.5 mg/kg/injection, schedule: Q01DX009 (ip), vehicle: saline + alcohol 90 % of control | dose: 25.0 mg/kg/injection, schedule: Q01DX009 (ip), vehicle: saline + alcohol 95 % of control | dose: 25.0 mg/kg/injection, schedule: Q04DX003 (ip), vehicle: saline with Tween-80 98 % of control | dose: 50.0 mg/kg/injection, schedule: Q01DX009 (ip), vehicle: saline + alcohol 101 % of control | dose: 50.0 mg/kg/injection, schedule: Q04DX003 (ip), vehicle: saline with Tween-80 104 % of control | [2] 103 % of control

O=c1cc(C2CCCCC2)[nH]c(=S)[nH]1
inactive: [12] 101 % of control | [13] 92 % of control | [14] 86 % of control | [15] 90 % of control

CC1CCC(C2=CSC3CCCCC3N2)CC1 (stereo not given)
inactive: dose: 100.0 mg/kg/injection, schedule: Q04DX002 (ip), vehicle: other 105 % of control | dose: 200.0 mg/kg/injection, schedule: Q04DX002 (ip), vehicle: other 94 % of control | dose: 400.0 mg/kg/injection, schedule: Q04DX002 (ip), vehicle: other 94 % of control

O=C1NC(=O)C2(CCCc3ccc(N(CCCl)CCCl)cc32)N1 (stereo not given)
inactive: dose: 30.0 mg/kg/injection, schedule: Q01DX015 (ip), vehicle: carboxymethylcellulose (CMC) 102 % of control | dose: 60.0 mg/kg/injection, schedule: Q01DX015 (ip), vehicle: carboxymethylcellulose (CMC) 120 % of control | dose: 120.0 mg/kg/injection, schedule: Q01DX015 (ip), vehicle: carboxymethylcellulose (CMC) 123 % of control | dose: 240.0 mg/kg/injection, schedule: Q01DX015 (ip), vehicle: carboxymethylcellulose (CMC) 107 % of control

COc1ccc(C(C)(C)CC(=O)O)cc1OC
inactive: dose: 100.0 mg/kg/injection, schedule: Q01DX001 (ip), vehicle: saline with Tween-80 92 % of control | dose: 200.0 mg/kg/injection, schedule: Q01DX001 (ip), vehicle: saline with Tween-80 92 % of control | dose: 400.0 mg/kg/injection, schedule: Q01DX001 (ip), vehicle: saline with Tween-80 95 % of control

O=C(NC1CCCCC1)NS(=O)(=O)c1ccc2c(c1)CCC2
inactive: [5] 100 % of control | dose: 200.0 mg/kg/injection, schedule: Q01DX001 (ip), vehicle: saline 102 % of control | dose: 400.0 mg/kg/injection, schedule: Q01DX001 (ip), vehicle: saline 96 % of control

CC12CCC(O)(CC1)CC2=O
inactive: dose: 75.0 mg/kg/injection, schedule: Q04DX002 (ip), vehicle: saline 95 % of control | dose: 150.0 mg/kg/injection, schedule: Q04DX002 (ip), vehicle: saline 95 % of control | dose: 300.0 mg/kg/injection, schedule: Q04DX002 (ip), vehicle: saline 103 % of control

O=C(Cn1ccc(=O)[nH]c1=O)c1cccs1
inactive: [1] 104 % of control | [2] 98 % of control | dose: 200.0 mg/kg/injection, schedule: Q01DX009 (ip), vehicle: saline with Tween-80 96 % of control | [3] 96 % of control | dose: 400.0 mg/kg/injection, schedule: Q01DX009 (ip), vehicle: saline with Tween-80 96 % of control | [4] 95 % of control

Cc1ccc(N=Nc2c(C)nc(N)nc2C)c(C)c1
inactive: dose: 75.0 mg/kg/injection, schedule: Q01DX001 (ip), vehicle: other 98 % of control | dose: 150.0 mg/kg/injection, schedule: Q01DX001 (ip), vehicle: other 98 % of control | dose: 300.0 mg/kg/injection, schedule: Q01DX001 (ip), vehicle: other 98 % of control

NC(=S)N/N=C\c1ccccc1/C=N/NC(N)=S
inactive: [12] 109 % of control | [13] 98 % of control | [14] 98 % of control | [15] 98 % of control

O=C1OC(c2ccccc2)(c2ccccc2)c2ccccc21
inactive: [6] 93 % of control | [7] 107 % of control | [8] 101 % of control | [9] 102 % of control | [10] 88 % of control | [11] 100 % of control

Cc1ccc(C2CCCN2C)cc1 (stereo not given)
inactive: dose: 25.0 mg/kg/injection, schedule: Q04DX003 (ip), vehicle: acetone 96 % of control | dose: 50.0 mg/kg/injection, schedule: Q04DX003 (ip), vehicle: acetone 94 % of control | dose: 100.0 mg/kg/injection, schedule: Q01DX001 (ip), vehicle: acetone 88 % of control | dose: 100.0 mg/kg/injection, schedule: Q04DX003 (ip), vehicle: acetone 99 % of control

CNc1ccc(C(=O)O)c(Cl)c1
inactive: dose: 75.0 mg/kg/injection, schedule: Q01DX001 (ip), vehicle: saline 95 % of control | dose: 75.0 mg/kg/injection, schedule: Q04DX003 (ip), vehicle: saline 97 % of control | dose: 150.0 mg/kg/injection, schedule: Q01DX001 (ip), vehicle: saline 98 % of control | dose: 150.0 mg/kg/injection, schedule: Q04DX003 (ip), vehicle: saline 111 % of control | dose: 300.0 mg/kg/injection, schedule: Q01DX001 (ip), vehicle: saline 93 % of control | dose: 300.0 mg/kg/injection, schedule: Q04DX003 (ip), vehicle: saline 103 % of control

CC(=O)Nc1ccc2ccccc2c1-c1c(N)ccc2ccccc12
inactive: dose: 100.0 mg/kg/injection, schedule: Q01DX009 (ip), vehicle: gum acacia 91 % of control | dose: 100.0 mg/kg/injection, schedule: Q04DX003 (ip), vehicle: gum acacia 97 % of control | dose: 200.0 mg/kg/injection, schedule: Q01DX009 (ip), vehicle: gum acacia 96 % of control | dose: 200.0 mg/kg/injection, schedule: Q04DX003 (ip), vehicle: gum acacia 92 % of control | dose: 400.0 mg/kg/injection, schedule: Q01DX009 (ip), vehicle: gum acacia 99 % of control | dose: 400.0 mg/kg/injection, schedule: Q04DX003 (ip), vehicle: gum acacia 101 % of control

Clc1ccc(Cl)c(NNc2cc(Cl)ccc2Cl)c1
inactive: dose: 25.0 mg/kg/injection, schedule: Q01DX009 (ip), vehicle: Klucel (hydroxypropylcellulose) (HPC) 114 % of control | dose: 50.0 mg/kg/injection, schedule: Q01DX009 (ip), vehicle: Klucel (hydroxypropylcellulose) (HPC) 98 % of control | [6] 96 % of control and 92 % of control | [7] 98 % of control | [9] 101 % of control

C/C(=C/c1ccccc1)C(=O)NN
inactive: dose: 80.0 mg/kg/injection, schedule: Q01DX001 (ip), vehicle: saline with Tween-80 98 % of control | dose: 160.0 mg/kg/injection, schedule: Q01DX001 (ip), vehicle: saline with Tween-80 106 % of control
